Reference: patent publication EP1179538A1, “PEPTIDES BLOCKING RESPONSE TO CHEMICAL SUBSTANCES OR THERMAL STIMULI OR NOCICEPTOR INFLAMMATION MEDIATORS AND COMPOSITIONS CONTAINING SAID PEPTIDES” (Universidad Miguel Hernandez de Elche, priority 1999, dated 2002)
Peptide text beside a SMILES is read from it.

Each compound was assayed against VR1 nocireceptor (assay: Blockage of capsaicin-activated ionic current in X. laevis ovocites expressing the VR1 nocireceptor (two-microelectrode voltage clamp)). Details: VR1 expressed in X. laevis ovocites; activated by capsaicin 20 µM; transmembrane voltage -80 mV; read-out: peptide concentrations that inhibited half of the VR1 response (IC50).
Assay type: cell-based
Text: This test comprises contacting X. laevi ovocites expressing the VR1 nocireceptor with an agonist (ligand) for said VR1 nocireceptor, for example, capsaicin, in the presence or absence of the compound to be tested, maintaining the transmembrane voltage constant at -80 mV, and detecting the inhibiting activity of said compound to be tested by measuring the agonist-activated ionic current in the presence and absence of the compound to be tested. The power and effectiveness of the inhibiting activity of the compound to be tested can be determined by obtaining the dosage-response curves. To achieve this, the magnitude of the capsaicin-activated ionic current blockage is examined in X. laevi ovocites that express the VR1 nocireceptor in the presence of the growing concentrations of the compound to be tested. The ratio of ionic current intensities in the presence and absence of the compound to be tested permits the obtention of dosage-response curves (19,20). These graphs can be adjusted to logarithmic functions to determine the maximum blockage (power) and the antagonist concentration produced by half the maximum blockage (IC50 effective).
In order to evaluate the biological activity of peptides obtained in Example 1.1 a test was developed to evaluate the power of said peptides blocking the agonist-activated ionic current in X. laevis ovocites that express the VR1 nocireceptor.
The heterologous expression of receptors in X. laevis ovocites can be carried out according to the procedure described by Ferrer-Montiel and Montal (19). […] The capsaicin agonist-activated ionic currents are recorded with the maintenance of the constant voltage technique with two microelectrodes (two-microelectrode voltage clamp) (19, 20). […] The inhibiting activity is detected by measuring the agonist -activated ionic current in the presence and absence of the peptides.
The power and effectiveness of the peptide inhibiting activity is determined by means of the obtention of dosage-response curves. […]

SMILES	IC50 [nM]
N=C(N)NCCC[C@H](NC(=O)[C@H](CCCNC(=N)N)NC(=O)[C@H](CCCNC(=N)N)NC(=O)[C@@H](N)CCCNC(=N)N)C(=O)N[C@@H](Cc1c[nH]c2ccccc12)C(=O)N[C@@H](Cc1c[nH]c2ccccc12)C(=O)O [SEC. ID. N1: 1, Arg-Arg-Arg-Arg-Trp-Trp] (H-RRRRWW-OH)	~100
CC[C@H](C)[C@H](NC(=O)[C@H](Cc1c[nH]c2ccccc12)NC(=O)[C@H](Cc1c[nH]c2ccccc12)NC(=O)[C@H](CCCNC(=N)N)NC(=O)[C@@H](N)CCCNC(=N)N)C(=O)N[C@@H](CCCNC(=N)N)C(=O)O [SEC. ID. N1: 2, Arg-Arg-Trp-Trp-Ile-Arg] (H-RRWWIR-OH)	~2000
N=C(N)NCCC[C@H](NC(=O)[C@H](CCCNC(=N)N)NC(=O)[C@H](Cc1ccc(O)cc1)NC(=O)[C@H](Cc1ccc(O)cc1)NC(=O)[C@@H](N)CCCNC(=N)N)C(=O)N[C@@H](Cc1c[nH]c2ccccc12)C(=O)O [SEC. ID. N1: 3, Arg-Tyr-Tyr-Arg-Arg-Trp] (H-RYYRRW-OH)	~10000
